Patent US20180245048A1, “METHODS AND COMPOSITIONS FOR EXPANSION AND DIFFERENTIATION OF SKELETAL MUSCLE STEM CELLS OR PROGENITOR CELLS” (AGENCY FOR SCIENCE, TECHNOLOGY AND RESEARCH, priority 2015, published 2018)

What was measured:
[1] = test system: induced pluripotent stem cell-derived myoblasts; assay: PAX7 mRNA expression in induced pluripotent stem cell-derived myoblasts; format: cell-based, human; details: 20 ng/ml bFGF, 3 μM CHIR99021, 2.5 μg/ml DLL1, alone or combined; vs untreated control (FIG. 1)
[2] = test system: induced pluripotent stem cell-derived myotubes; assay: qPCR screen of myogenic differentiation markers, 70 small molecules; format: cell-based, human; details: for MyoD, MyoG and MYHC (myosin heavy chain) expression: each individually, during drug-induced myogenesis from human iPSC (FIG. 9); for expression of differentiated myocyte markers MYOG, MYHC, MYH3, MYH8 and adult myotube markers MYH7, MYH2, MYH1: screen, vs untreated control (FIG. 9)
Description: FIG. 9 is a heat map showing the levels of MYOG, MYHC, MYH3, MYH8, MYH7, MYH2, MYH1 expression in induced pluripotent stem cell-derived myotubes after screening with 70 different small molecules related to the metabolomics findings, compared to an untreated control group.
Thus carnitine to facilitate fatty acid oxidation, the fatty acids linoleate, arachidonate and palmitate to fuel fatty acid oxidation were tested. It was also tested whether statin inhibitors of steroid synthesis, such as fluvastatin, and steroids like testosterone or progesterone could boost human myotube differentiation. Against this background, a variety of other small molecule drugs and metabolites were also screened, including OxPhos inhibitors and vitamins, to test their effects on myotube differentiation. A qPCR screen was then performed for various myogenic differentiation markers on human induced pluripotent stem cell-derived myoblasts exposed to these 70 conditions (FIG. 9).

[3] = test system: human induced pluripotent stem cell-derived myoblasts; assay: qPCR screen of lineage markers (OCT3/4, NCAM, AFP, PAX7), 70 small molecules; format: cell-based; details: vs untreated control (FIG. 3); for PAX7 mRNA expression: during FGF/Wnt/Notch-induced myogenesis
Description: FIG. 3 is a heat map showing the levels of OCT3/4, NCAM, AFP and PAX7 mRNA expression in induced pluripotent stem cell-derived myoblasts after screening with 70 different small molecules related to the metabolomics findings, compared to an untreated control group.
Thus, the adenylyl cyclase agonist Forskolin was tested to induce cAMP synthesis, and cobalamin was administered to see if these compounds boosted the expansion of human myoblasts. It was also tested whether glutamine, hypoxanthine and thymidine—all of which are rate-limiting for nucleotide synthesis—could boost human myoblast expansion. Against this background, a variety of other small molecule drugs and metabolites were screened, including amino acids and fatty acids, thereby testing their effects on myoblast expansion. A real-time polymerase chain reaction (qPCR) screen was then performed for various lineage markers (pluripotency marker OCT3/4, neuromuscular marker NCAM, endoderm marker AFP, muscle marker Pax7) on human induced pluripotent stem cell-derived myoblasts exposed to these 70 conditions (FIG. 3).

Compound	MyoD, MyoG and MYHC (myosin heavy chain) expression [2]	expression of differentiated myocyte markers MYOG, MYHC, MYH3, MYH8 and adult myotube markers MYH7, MYH2, MYH1 [2]	PAX7 mRNA expression [3]	also measured
Cc1cnc(-c2cnc(NCCNc3ccc(C#N)cn3)nc2-c2ccc(Cl)cc2Cl)[nH]1 [CHIR99021, 6-[[2-[[4-(2,4-dichlorophenyl)-5-(5-methyl-1H-imidazol-2-yl)-2 pyrimidinyl]amino]ethyl]amino]-3-pyridinecarbonitrile, reference compound]				PAX7 mRNA expression [1]: increase in PAX7 expression
CC(=O)OC(CC(=O)[O-])C[N+](C)(C)C (centres unmarked) [O-acetyl-carnitine]	specifically increase			
C[N+](C)(C)CC(O)CC(=O)[O-] (centres unmarked) [carnitine]	specifically increase	increase expression		
NC(=O)CC[C@H](N)C(=O)O [glutamine]			specifically increase	AFP (endoderm marker) mRNA expression [3]: without increasing; NCAM (neuromuscular marker) mRNA expression [3]: increase; OCT3/4 (pluripotency marker) mRNA expression [3]: without increasing
O=c1[nH]cnc2nc[nH]c12 [hypoxanthine]			specifically increase	
CCCCC/C=C\C/C=C\CCCCCCCC(=O)O [linoleic acid]	specifically increase	increase expression		
C[C@]12CC[C@H]3[C@@H](CCC4=CC(=O)CC[C@@]43C)[C@@H]1CC[C@@H]2O [testosterone, reference compound]	specifically increase	increase expression		
Cc1cn([C@H]2C[C@H](O)[C@@H](CO)O2)c(=O)[nH]c1=O [thymidine]			specifically increase	
bFGF: FGF2 (basic fibroblast growth factor), FGF signalling agonist				PAX7 mRNA expression [1]: increase in PAX7 expression
cobalamin [vitamin B12]			increase	PAX7 mRNA expression ([3]; listed as cobalamin): specifically increase; AFP (endoderm marker) mRNA expression [3]: without increasing; NCAM (neuromuscular marker) mRNA expression [3]: increase; OCT3/4 (pluripotency marker) mRNA expression [3]: without increasing
